Data as given in patent US9062039B2, “Therapeutic compounds” (CHANGZHOU LE SUN PHARMACEUTICALS LIMITED, priority 2012, dated 2015).
Where two headings read alike, the source gives them in different places.

Experiments:
Normal T-cells = test: Ex vivo CLL assay (Annexin V apoptosis, flow cytometry); type: cell-based, human; conditions: up to 48 h
[1] = Determination of pharmacokinetics in mice; type: in vivo; conditions: male, CD1, mouse, plasma; Mice PK, 10 mg/kg, po; read-out: Oral bioavailability F %
Method: For PK measurements male adult CD1 mice weighing 25-30 g (Charles River) are split into weight matched groups of 3 per group. The mice were held at the scruff of the neck and orally dosed via a metal gavage directly into the stomach. Immediately after dosing mice are returned to their cage, plastic box cage with sawdust bedding, and food and water available. Blood samples were collected from the mouse under anaesthesia by cardiac puncture using a 1 mL syringe and 25 gauge needle at time zero and at intervals up to 8 h. Harvested blood was centrifuged at 7000×G for 2 minutes, and the plasma aspirated and frozen at −20° C. until analysis. Quantitative compound level analysis was carried out using LC-MS/MS methods. Pharmacokinetic data derived using PK Solutions 2.0, non-compartmental analysis. Oral bioavailability (% F) was calculated by taking the ratio of dose-normalised AUC values from oral versus parenteral dosing.

[2] = tested on: HCT-116 (human colon carcinoma); test: 48h MTT proliferation assay; type: cell-based
[3] = tested on: MCF-7 (human breast carcinoma); test: 48h MTT proliferation assay; type: cell-based
Normal B-cells = test: Ex vivo CLL assay (Annexin V apoptosis, flow cytometry); type: cell-based, human; conditions: up to 48 h
Patient CLL B-cells = test: as above; type: cell-based, human; conditions: up to 48 h
[4] = tested on: MCL1, BCL2, XIAP, CCND1 and CCND2 expression in CLL cells; test: Gene expression profiling (Affymetrix microarray); type: cell-based, human
Source text: The detailed protocol for sample preparation and microarray processing is available from Affymetrix (http://www.affymetrix.com). […] After second strand synthesis, the resulting cDNA was subjected to an in vitro transcription reaction using a Bioarray kit (Enzo Diagnostics, New York, N.Y., USA) to generate biotinylated cRNA. This was subsequently fragmented and hybridized to the Affymetrix U133 2.0 Gene Chips. After hybridization, each microarray was washed, stained and scanned with an argon-ion confocal laser, with excitation at 488 nm and detection at 570 nm. The significance of differences between experimental conditions was determined using the Student's t test for paired and unpaired observations. To assess the interaction between agents, the median effect method was employed using CalcuSyn software (CalcuSyn; Biosoft International, Ferguson, Mo.). The combination index was calculated for the two-drug combination using an experimentally determined fixed concentration ratio. […] Affymetrix gene expression data were processed using Partek Genomics Suite (Partek Inc. Saint Louis, USA).

[5] = tested on: MCL1 transcription in CLL cells; test: Real-time reverse transcription-PCR of MCL1; type: cell-based, human; conditions: 4 h, with and without CD40L co-culture
Method: CDKI-73, 100:1) for 4 h using the method described by Walsby et al. (Oncotarget 3, 525-34 (2012)).

[6] = tested on: primary CLL cells co-cultured with CD40L-expressing mouse embryonic fibroblasts; test: Synergy between CDKI-73 and fludarabine under CD40L co-culture; type: cell-based, human; conditions: CDKI-73 combined with fludarabine, other two additive
Method: Lymphocytes were separated using Ficoll-Hypaque (Sigma, Poole, UK) and autologous plasma was collected for use in some experiments. Separated lymphocytes were maintained in RPMI medium supplemented with 10% fetal bovine serum (FBS), penicillin (50 U/ml), streptomycin (50 μg/ml) and recombinant human IL-4 (R and D Systems, Abingdon, UK) (5 ng/ml). […] The significance of differences between experimental conditions was determined using the Student's t test for paired and unpaired observations. To assess the interaction between agents, the median effect method was employed using CalcuSyn software (CalcuSyn; Biosoft International, Ferguson, Mo.). The combination index was calculated for the two-drug combination using an experimentally determined fixed concentration ratio.

[7] = tested on: primary CLL cells co-cultured with CD40L-expressing mouse embryonic fibroblasts; conditions: fludarabine alone; Walsby et al. 2012; cited from earlier work
[8] = HCT-116, read-out: 48h-MTT Anti-proliferative activity GI50 HCT-116 (human colon carcinoma), Table 2, 48 h
[9] = HCT-116, read-out: 48h-MTT cytotoxicity GI50 HCT-116, Table 1, 48 h
[10] = MCF7, read-out: 48h-MTT Anti-proliferative activity GI50 MCF-7 (human breast carcinoma), Table 2, 48 h
[11] = MCF7, read-out: 48h-MTT cytotoxicity GI50 MCF-7, Table 1, 48 h

| Structure (SMILES) | Ex vivo efficacy, LD50 Normal T-cells (Normal T-cells) [µM] | bioavailability [1] [%] | GI50 [2, 8] [nM] | GI50 [2, 9] [nM] | GI50 [3, 10] [nM] | GI50 [3, 11] [nM] | Ex vivo efficacy, LD50 Normal B-cells (Normal B-cells) [µM] | Ex vivo efficacy, LD50 Patient CLL B-cells (Patient CLL B-cells) [µM] | expression of MCL1, BCL2, XIAP and CCND1 and D2 ([4]; combination 0.1 μM CDKI-73 and 10 μM fludarabine, 4 h) | expression of MCL1, BCL2, XIAP and CCND1 and CCND2 ([4]; single agent, 0.1 μM CDKI-73, 4 h) | MCL1 transcription (QRT-PCR) ([5]; CDKI-73 in combination with fludarabine (100:1)) | MCL1 transcription (QRT-PCR) ([5]; single agent) | samples tested that showed cytotoxic synergy [6] | cytotoxic effects of fludarabine under CD40L co-culture [7] |
| --- | --- | --- | --- | --- | --- | --- | --- | --- | --- | --- | --- | --- | --- | --- |
| CNc1nc(C)c(-c2nc(Nc3cccc(S(N)(=O)=O)c3)ncc2C#N)s1 [Comparator, 3-(5-cyano-4-(4-methyl-2-(methylamino)thiazol-5-yl)pyrimidin-2-ylamino)benzenesulfonamide, reference compound] | 350 | 7 | 430 | 440 | 480 | 480 | 89 | 0.43 | – | – | – | – | – | – |
| CNc1nc(C)c(-c2nc(Nc3cccc(S(N)(=O)=O)c3)ncc2F)s1 [Example 1, 3-(5-Fluoro-4-(4-methyl-2-(methylamino)thiazol-5-yl)pyrimidin-2-ylamino)benzene sulfonamide] | 506.3 | 56 | 60 | 30 | 50 | 30 | 40.5 | 0.08 | marked repression | down regulated | significantly inhibited | significantly inhibited | 8/10 | – |
| CNc1nc(C)c(-c2nc(Nc3cccc(S(N)(=O)=O)c3)ncc2Cl)s1 [Example 3, 3-(5-chloro-4-(4-methyl-2-(methylamino)thiazol-5-yl)pyrimidin-2-ylamino)benzene sulfonamide] | – | – | – | 30 | – | 60 | – | – | – | – | – | – | – | – |
| Nc1nc(F)nc2c1ncn2[C@@H]1O[C@H](CO)[C@@H](O)[C@@H]1O [fludarabine] | – | – | – | – | – | – | – | – | – | – | – | – | – | completely abrogates |
